According to ChEMBL document CHEMBL4052777, “Synthesis of novel hybrids of pyrazole and coumarin as dual inhibitors of COX-2 and 5-LOX” (Bioorg Med Chem Lett, 2017):

How the values were obtained:
A549 = assay: cells; conditions: Homo sapiens, A549, 48 h
SMMC-7721 = assay: Antiproliferative activity against human SMMC7721 cells after 48 hrs by MTT assay; format: functional, cell-based; conditions: SMMC-7721, 48 h
HeLa = assay: cells; conditions: Homo sapiens, 48 h
HEK-293T = assay: Antiproliferative activity against human 293T cells after 48 hrs by MTT assay; format: cell-based
HT-29 = assay: cells; conditions: Homo sapiens, HT-29, 48 h
Description: Antiproliferative activity against human HT-29 cells after 48 hrs by MTT assay

Row | Compound | IC50 (A549) [µM] | IC50 (SMMC-7721) [µM] | IC50 (HeLa) [µM] | IC50 (HEK-293T) [µM] | IC50 (HT-29) [µM]
1 | O=c1ccc2ccc(O)cc2o1 [UMBELLIFERONE] | 21.1 | 19.9 | 42.4 | 190 | 22.7
2 | Cc1ccc(-c2cc(C(F)(F)F)nn2-c2ccc(S(N)(=O)=O)cc2)cc1 [CELECOXIB] | 7.68 | 5.96 | 11.1 | 112 | 8.47
